Results taken from patent US20220054485A1, “METHODS OF TREATING RIGHT VENTRICULAR FUNCTION IN PULMONARY HYPERTENSION” (REGENTS OF THE UNIVERSITY OF MINNESOTA, priority 2020, published 2022).
“Also recorded” adds a separate entry of the source. Where two headings read alike, the source gives them in different places.

Legend:
IL-6 receptor = biological target: T1, IL-6 receptor (Homo sapiens, UniProt P08887); conditions: PAH patients, vs control group; cited from earlier work
T1 construct: host or cells: PAH patients (clinical trial run by others)
T1 sequence (P08887 20-468): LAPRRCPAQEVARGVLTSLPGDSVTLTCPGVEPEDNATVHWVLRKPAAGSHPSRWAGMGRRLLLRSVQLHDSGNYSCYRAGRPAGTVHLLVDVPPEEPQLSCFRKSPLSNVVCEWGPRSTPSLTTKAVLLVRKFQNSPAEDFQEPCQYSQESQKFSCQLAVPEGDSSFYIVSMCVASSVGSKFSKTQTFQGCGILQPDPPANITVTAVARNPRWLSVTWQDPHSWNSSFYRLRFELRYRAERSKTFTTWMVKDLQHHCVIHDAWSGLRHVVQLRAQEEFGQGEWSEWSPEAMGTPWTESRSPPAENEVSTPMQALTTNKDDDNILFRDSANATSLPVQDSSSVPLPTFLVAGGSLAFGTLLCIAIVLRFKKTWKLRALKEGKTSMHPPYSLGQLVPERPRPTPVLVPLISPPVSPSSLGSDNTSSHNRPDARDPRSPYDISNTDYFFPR

MCT rats = conditions: cited from earlier work
adult cardiomyocytes = test: IL6 incubation of isolated adult cardiomyocytes (microtubules, JPH2, t-tubules); format: cell-based; conditions: IL6 10 ng/mL
Experimental: To examine the direct effects of IL6 on the MT-JPH2 pathway, adult cardiomyocytes were incubated with IL6 (10 ng/mL) and then it was quantified how MT, JPH2, and t-tubules were affected. IL6 increased MT density as determined by quantitative immunofluorescence (16.0±0.9 vs 20.4±0.7 fluorescence intensity/μm^2, p<0.001) (FIGS. 4A and 4B). The altered MT structure disrupted JPH2 localization marked by loss of t-tubule enrichment (TT score: 65.6±2.5 vs 59.6±1.6, p=0.04) (FIGS. 4C and 4D). Finally, IL6 caused t-tubule remodeling with loss of t-tubule regularity (TT score: 59.9±1.9 vs 51.9±1.5, p=0.003) (FIGS. 4E and 4F).
Determination of how IL6 alters the microtubule-JPH2-t-tubule pathway in isolated cardiomyocytes: Right ventricular cardiomyocytes are isolated using the Langendorf retrograde perfusion protocol. Cardiomyocytes are incubated for 24, 48, and 72 hours with either phosphate buffered saline (PBS), IL6 (10 ng/mL), IL6 (10 ng/mL) plus the STAT3 inhibitor Stattic (2 μM), or IL6 (10 ng/mL) plus colchicine (10 μM). Then Western blot analysis and confocal microscopy is used to examine microtubule density, JPH2 protein levels and localization, and t-tubule morphology. JPH2 localization patterns and t-tubule remodeling are quantified using the TTPower plug-in in FIJI.

H9c2 cardiomyocytes = test: Seahorse mitochondrial respiration in H9c2 cardiomyocytes; format: cell-based, rat; conditions: 20 μM paclitaxel overnight
Experimental: Cell culture and mitochondrial respiration measurements: H9c2 (ATCC CRL-1446) rat cardiomyocytes were maintained in Dulbecco's Modified Eagle's Medium (DMEM) (Thermo Scientific) supplemented with 10% fetal bovine serum (FBS) (Foundation, Gemini Bio-Products, West Sacramento, Calif.), 100 U/ml penicillin, and 100 μg/ml streptomycin (Invitrogen, Carlsbad, Calif.) at 37° C. with 5% CO2. Cells were passaged with Accutase (BioLegend, San Diego, Calif.). Differentiation was induced by changing to differentiation medium which had 2% horse serum (Equitech-Bio, Kerrville, Tex.), in place of FBS. Ten thousand cells were plated per Agilent Seahorse XFp dish pretreated with 0.1% gelatin (Sigma-Aldrich, St. Louis, Mo.). Five days after initial plating, cells were treated with differentiation media supplemented with 20 μM paclitaxel in DMSO (Sigma-Aldrich) overnight. The following day and one hour before the assay, cell media was changed to Seahorse DMEM assay media and supplemented with 5 mM glucose, 4 mM glutamine, and 1 mM pyruvate (Agilent, Santa Clara, Calif.). Oxygen consumption rate (OCR) was measured with an Agilent Seahorse XFp Extracellular Flux analyzer using the Agilent XFp Cell Mito Stress Test Kit with oligomycin A (final concentration after injection 1.5 μM), carbonyl cyanide 4-(trifluoromethoxy)phenylhydrazone (FCCP at 2 μM), and […] rotenone/actimycin. After the assay, cells were lysed in 50 μl of 1× Laemmli sample buffer supplemented with HALT protease and phosphatase inhibitor cocktail (Thermo Fisher). Cell lysates were electrophoresed on SDS-PAGE gels and stained with CBB per above to estimate total protein per sample. Raw Seahorse measurements were normalized to total protein and analyzed using Agilent Wave software.

[1] = therapy started one week after MCT

## tocilizumab: a monoclonal antibody that antagonizes the IL-6 receptor
IL-6 receptor
  PVR: not different between the tocilizumab and control groups; also recorded: does not alter PVR

## COc1cc2c(c(OC)c1OC)-c1ccc(OC)c(=O)cc1[C@@H](NC(C)=O)CC2 [colchicine]
MCT rats; RV, listed as Colchicine
  JPH2 expression: increases JPH2 expression
  t-tubule architecture: corrects t-tubule architecture
MCT rats; RV
  JPH2 expression: increases JPH2 levels; also recorded: increases JPH2 expression
  microtubule density: reduces microtubule density
  t-tubule architecture: combats pathological t-tubule remodeling
MCT rats
  RV function / contractility: augments RV function
  exercise capacity: enhances exercise capacity
MCT rats; listed as Colchicine
  RV function / contractility: improves RV function

## CCCc1nn(C)c2c(=O)[nH]c(-c3cc(S(=O)(=O)N4CCN(C)CC4)ccc3OCC)nc12 [sildenafil]
MCT rats; RV
  JPH2 expression: restores RV JPH2 expression
  t-tubule architecture: restores RV JPH2 expression and t-tubule architecture
MCT rats
  RV function / contractility: improves RV contractility

## IL6: inflammatory cytokine that binds to the cell membrane proteins IL6 receptor and GP130
Adult cardiomyocytes
  JPH2 t-tubule enrichment (TT score): 59.6±1.6
  MT density by quantitative immunofluorescence: 20.4±0.7 fluorescence intensity/μm^2
  t-tubule regularity (TT score): 51.9±1.5

## C[C@]12CCC(OC=O)CC1CC[C@@H]1[C@@H]2CC[C@]2(C)C(C34C=CC(=O)OC3O4)CC3O[C@]312 (stereo partly shown) [20S,21-epoxy-resibufogenin-3-formate]
MCT rats; [1]
  mPAP: lowered mPAP
  pulmonary vascular remodeling: attenuated adverse pulmonary vascular remodeling

## CC(=O)O[C@H]1C(=O)[C@@]2(C)[C@H]([C@H](OC(=O)c3ccccc3)[C@]3(O)C[C@H](OC(=O)[C@H](O)[C@@H](NC(=O)c4ccccc4)c4ccccc4)C(C)=C1C3(C)C)[C@]1(OC(C)=O)CO[C@@H]1C[C@@H]2O [Paclitaxel, paclitaxel]
H9c2 cardiomyocytes
  ATP production: reduced
  coupling efficiency: reduced
  maximal respiration: reduced
  proton leak: enhanced
  spare capacity: reduced
